Measured values as given in patent US20210198248A1, “FUMARATE SALT OF 5-((5-METHYL-2-((3,4,5-[…])AMINO)PYRIMIDIN-4-YL)AMINO)-BENZO[D]OXAZOL-2(3H)-ONE” (ASTRAZENECA AB, priority 2018, published 2021).
Structures can show the parent of a compound that is named as a salt.

Experiments:
JAK = details: cell-based assay, WO 2010/085684 page 314; cited from earlier work
[1] = Dissolution measurements, μ-DISS Profiler, micronized material; format: physicochemical
Procedure: In general, 0.5 mg of the micronized material was added to the stirred dissolution media (20 mL 0.1 M acetate buffer, pH 4.5, 200 rpm, at 37° C.). The dissolution profiles were generated by measuring the UV absorbance at 280 nm wavelength. The material of interest was evaluated in triplicate.
The particle size of the materials was reduced by micronisation, as follows, using a 2″ Spiral Jet Mill or a 1″ MCOne fluid Jet Mill followed by subsequent particle size distribution (PSD) measurements.
Test substance was fed into the jet mill chamber, via a venturi feed system, by a vibratory feeder. Micronisation was achieved by particle collisions brought about by compressed gas (nitrogen) forced through angled nozzles in the jet mill chamber. Particles of different sizes develop different speeds and momentum and as the particle size is reduced the particles spiral towards the centre of the jet mill and exit via an exhaust into a collection bin. The process parameters that control the particle size, in addition to the inherent properties of the compound to be micronised, are the feed rate, grinding pressure and venturi pressure and these are summarised in Table 2 below.

| Structure (SMILES) | IC50 (JAK) | increase in solubility compared to free base ([1]; at 50 minutes, 0.1 M acetate buffer pH 4.5, 37° C., micronized material) | aqueous solubility ([1]; general statement, compared to Compound (I) free base) |
| --- | --- | --- | --- |
| Cc1cnc(Nc2cc(C)c(C)c(C)c2)nc1Nc1ccc2oc(=O)[nH]c2c1 [Compound (I), 5-((5-methyl-2-((3,4,5-trimethylphenyl)-amino)pyrimidin-4-yl)amino)benzo[d]oxazol-2(3H)-one] | < 0.5 µM | – | – |
| Cc1cnc(Nc2cc(C)c(C)c(C)c2)nc1Nc1ccc2oc(=O)[nH]c2c1 [hemi-fumarate salt, 5-((5-methyl-2-((3,4,5-trimethylphenyl)-amino)pyrimidin-4-yl)amino)benzo[d]oxazol-2(3H)-one hemi-fumarate Salt] | – | ~6 fold | high aqueous solubility |
